Assay in all cases: NCI anticancer screen, dose series, 48 h
Assay [1] deals with UACC-62 melanoma.
The subject of assay [2] is IGROV1 ovarian.
Assay [3] concerns HOP-62 NSCLC.
Assay [4] deals with COLO 205 colon.
For assay [5], the system named is OVCAR-8 ovarian.
The test system of assay [6] is MALME-3M melanoma.
The test system of assay [7] is ACHN renal.
Assay [8] deals with OVCAR-4 ovarian.
Assay [9] concerns DU-145 prostate.
The subject of assay [10] is UACC-257 melanoma.

The structures appear in SMILES notation.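 Where inhibition never reached the appropriate level, the endpoint shown equals the highest concentration tested. Otherwise, values were interpolated linearly from a five-concentration, 48-hour dose response in 96-well plates. Here, GI50 denotes the concentration required for 50% inhibition of growth. Definition used: TGI = concentration required for complete inhibition of growth.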

Consider `CC(=O)O[C@]1(C(C)=O)CC[C@H]2[C@@H]3C=C(C)C4=CC(=O)CC[C@]4(C)[C@H]3CC[C@@]21C`, for which the GI50 was more than 71.8 µM in assay [1]; more than 100 µM in assay [2]; more than 100 µM in [3]; more than 100 µM in assay [4]; more than 75.4 µM in assay [5]; more than 74 µM in assay [6]. For the same compound, the GI50 in assay [7] was more than 74.1 µM; in assay [8], more than 91.5 µM; in assay [9], more than 100 µM; in assay [10] it was more than 89.2 µM. The TGI in assay [1], in assay [2], in [3], in [4], in assay [5] and in [6] was more than 100 µM throughout. The TGI in assay [7], in assay [8], in [9] and in [10] was more than 100 µM in each case.
For `Cn1ccnc1C(=O)/C=C/c1ccccc1`, the GI50 in assay [1] is 7.46 µM; in assay [2], 2.66 µM; in assay [3], 4.44 µM; in [4], 5.38 µM; in assay [5], 2.59 µM; in [6] it was 12.3 µM. In addition, the GI50 in [7] is 4.53 µM; in assay [8] it was 7.47 µM; in assay [9], 2.8 µM; in assay [10], 4.07 µM. Further, the TGI in assay [1] was found to be 21.3 µM; in assay [2], 14 µM; in [3], 14.4 µM; in assay [4] it was 18 µM; in [5], 6.94 µM; in [6], 27.9 µM. The TGI in [7] was 20.3 µM; in assay [8], 26 µM; in assay [9], 12.7 µM; in assay [10] it was 16.2 µM.
For `CCCCCCCCCc1cccc(N2C(N)=NC(N)=NC2(C)C)c1`, the TGI in assay [1] stood at 4.07 µM; in [3], 1.24 µM; in [4] it was 2.38 µM; in assay [5], 16 µM; in assay [6], 8.22 µM; in assay [7], 1.06 µM. Besides, the TGI was 4.39 µM in assay [8], 8.4 µM in [9] and 2.13 µM in [10].
In the case of `C[C@@H](CO)[C@@H]1CCC=C2CC[C@]3(C)[C@H](CC[C@@H]4[C@@]5(C)CCCNC(C)(C)[C@@H]5CC[C@]43C)[C@H]21`, the GI50 is 1.73 µM in assay [1]; 1.78 µM in assay [2]; 2.08 µM in assay [3]; 2.02 µM in [5]; 1.71 µM in assay [6]; 2.45 µM in assay [7]. The GI50 is 1.98 µM in assay [8], 3.36 µM in assay [9] and 2.59 µM in [10]. Moreover, the TGI stood at 3.18 µM in assay [1]; 3.41 µM in [2]; 4.21 µM in assay [3]; 4.1 µM in assay [5]; 3.36 µM in assay [6]; 6.52 µM in assay [7]. The TGI in assay [8] is 5.02 µM; in [9], 11.3 µM; in assay [10], 7.08 µM.
`O=C(Nc1ccccc1)NS(=O)(=O)c1ccc(-n2nc3c(c2-c2ccc(Cl)cc2)Cc2ccccc2-3)cc1`: the GI50 in assay [1] was 12.2 µM; in assay [2] it was 28.5 µM; in [3], 72 µM; in assay [4], 23.5 µM; in assay [5], 24.7 µM; in assay [7], 12.9 µM. In addition, the results for the GI50 in assay [8], in assay [9] and in assay [10] were 45.2 µM, 19.4 µM and 37.1 µM, respectively. The TGI is 30.6 µM in [1]; more than 100 µM in assay [2]; more than 100 µM in assay [3]; 64.9 µM in assay [4]; 86.8 µM in assay [5]; 71.8 µM in assay [7]. Moreover, the TGI in assay [8] was more than 100 µM; in assay [9], 47 µM; in [10], more than 100 µM.
Regarding `CCC1CCc2nc3sc(C(=O)Nc4cccc(F)c4)c(N)c3cc2C1` (centres undefined), the GI50 was 0.376 µM in assay [1]; more than 100 µM in assay [2]; more than 100 µM in assay [3]; 51.8 µM in [4]; more than 100 µM in assay [5]; more than 100 µM in assay [7]. In addition, the GI50 in assay [8], in assay [9] and in assay [10] was more than 100 µM throughout. Also, the TGI in assay [1], in assay [2], in [3], in [4], in [5] and in assay [7] was more than 100 µM each time. The TGI in assay [8], in assay [9] and in [10] was more than 100 µM each time.
In the case of `O=[N+]([O-])c1c(Br)sc(Br)c1[N+](=O)[O-]`, the GI50 in assay [1] is 1.87 µM; in assay [2] it was 1.98 µM; in assay [3] it was 3.25 µM; in assay [4], 1.57 µM; in assay [5], 2.39 µM; in assay [7], 1.64 µM. The GI50 in assay [8] was 1.85 µM; in [9] it was 6.8 µM; in [10], 1.52 µM. In addition, the TGI in assay [1] is 4.68 µM; in [2], 5.38 µM; in assay [3] it was 11.3 µM; in assay [4], 3.38 µM; in assay [5], 7.08 µM; in assay [7], 3.19 µM. The figures for the TGI in assay [8], in assay [9] and in [10] were 3.62 µM, 19.6 µM and 3.04 µM, respectively.
Take `CN1c2ccccc2C(C)(C)C12C=Cc1cc(O)ccc1O2` (centres undefined): the GI50 in [1] is 2.56 µM; in [2] it was 4.69 µM; in assay [3], 3.44 µM; in assay [4] it was 1.9 µM; in [5], 3.16 µM; in [7], 7.2 µM. Moreover, the results for the GI50 in assay [8], in assay [9] and in assay [10] were 4.73 µM, 2.56 µM and 2.94 µM, respectively. Besides, the TGI in assay [1] came to 11.5 µM; in assay [2] it was 14.9 µM; in assay [3], 10.6 µM; in [4], 3.88 µM; in [5], 12.9 µM; in [7], 22.9 µM. Also, the TGI turned out to be 17.6 µM in [8], 8.17 µM in assay [9] and 12.1 µM in assay [10].

The record behind these values is PubChem BioAssay (NCI).
